For data set [1], the target named is T1, L-lactate dehydrogenase B chain (Homo sapiens, UniProt P07195). Put plainly: Binding affinity to full length human N-terminal His6-tagged LDH-H expressed in Escherichia coli Rosetta (DE3) assessed as saturation transfer at C-terminal residues at 800 uM phosphate buffer at pH 7 by 2D NMR-TOCSY analysis.
Target sequence in this assay (P07195 2-334 limits assumed): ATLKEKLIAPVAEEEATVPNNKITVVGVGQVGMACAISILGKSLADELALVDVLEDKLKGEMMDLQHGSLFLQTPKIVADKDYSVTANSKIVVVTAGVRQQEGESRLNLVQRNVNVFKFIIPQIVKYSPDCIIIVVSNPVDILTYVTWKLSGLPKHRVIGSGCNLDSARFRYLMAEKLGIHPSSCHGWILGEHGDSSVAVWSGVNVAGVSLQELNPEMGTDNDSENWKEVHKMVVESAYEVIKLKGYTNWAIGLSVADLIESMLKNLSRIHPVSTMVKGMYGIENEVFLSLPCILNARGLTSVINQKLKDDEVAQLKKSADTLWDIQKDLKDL
The target in data set [2] is T1, L-lactate dehydrogenase B chain. Put plainly: Binding affinity to full length human N-terminal His6-tagged LDH-H expressed in Escherichia coli Rosetta (DE3) assessed as saturation transfer at N-terminal residues at 800 uM phosphate buffer at pH 7 by 2D NMR-TOCSY analysis.
Target sequence in this assay (P07195 2-334 limits assumed): as above
The target is the same in data set [3]. Put plainly: Binding affinity to recombinant full length human His-tagged LDH-1 (1 to 322 residues) expressed in Escherichia coli by WaterLOGSY NMR analysis.
Target sequence in this assay (P07195 whole entry): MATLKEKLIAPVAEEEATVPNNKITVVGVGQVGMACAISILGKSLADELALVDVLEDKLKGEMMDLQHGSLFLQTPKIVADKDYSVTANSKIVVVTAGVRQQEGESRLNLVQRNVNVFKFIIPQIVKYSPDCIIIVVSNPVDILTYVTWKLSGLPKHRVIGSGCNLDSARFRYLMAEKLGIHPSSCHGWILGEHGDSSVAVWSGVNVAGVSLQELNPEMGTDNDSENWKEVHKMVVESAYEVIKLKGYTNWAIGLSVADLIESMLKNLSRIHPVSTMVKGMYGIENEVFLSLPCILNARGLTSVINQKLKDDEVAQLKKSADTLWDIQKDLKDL
Data set [4] shares this target. Kind of data set: Inhibition of recombinant full length human His-tagged LDH-1 (1 to 322 residues) expressed in Escherichia coli at 800 uM by WaterLOGSY NMR analysis.
Target sequence in this assay (P07195 whole entry): as above
For data set [5] the target is unchanged. Put plainly: Binding affinity to full length human N-terminal His6-tagged LDH-H expressed in Escherichia coli Rosetta (DE3) assessed as saturation transfer stemming at 800 uM in sodium phosphate buffer at pH 7.6 by WaterLOGSY NMR analysis.
Target sequence in this assay (P07195 2-334 limits assumed): as the sequence (P07195 2-334 limits assumed) above
Data set [6] shares this target. Put plainly: Binding affinity to full length human N-terminal His6-tagged LDH-H expressed in Escherichia coli Rosetta (DE3) measured after 5 mins by Red-NHS fluorescent dye based microscale thermophoresis analysis.
Target sequence in this assay (P07195 whole entry): as the sequence (P07195 whole entry) above
Data set [7] has the same target. Kind of data set: Binding affinity to recombinant full length human His-tagged LDH-1 (1 to 322 residues) expressed in Escherichia coli at 800 uM by WaterLOGSY NMR analysis.
Target sequence in this assay (P07195 whole entry): as above
Data set [8] concerns the target T2, L-lactate dehydrogenase A chain (Homo sapiens, UniProt P00338). Kind of data set: Binding affinity to truncated human N-terminal His6-tagged LDH-5 expressed in Escherichia coli Rosetta (DE3) assessed as induction of thermal destabilization by measuring melting temperature at 400 uM by nano differential scanning fluorimetry analysis.
The target of data set [9] is L-lactate dehydrogenase A chain (Oryctolagus cuniculus) (UniProt P13491). Put plainly: Binding affinity to rabbit LDH-5 assessed as acid-induced dimerization by measuring fluorescence recovery at 0.75 uM to 400 uM pH 7.6 by nano differential scanning fluorimetry analysis. On the technique in general: DSF heats the sample and reads unfolding from a dye or from intrinsic fluorescence.

The target in data set [10] is T2, L-lactate dehydrogenase A chain. Kind of data set: Binding affinity to human N-terminal His6-tagged LDH-5 expressed in Escherichia coli Rosetta (DE3) assessed as induction of thermal destabilization by measuring change in melting temperature at 400 uM by nano differential scanning fluorimetry analysis.
The target is the same in data set [11]. Put plainly: Binding affinity to human N-terminal His6-tagged human LDH-5 expressed in Escherichia coli Rosetta (DE3) assessed as induction of protein disruption by interacting with tetramerization site by Red-NHS fluorescence dye based microscale thermophoresis analysis.
For data set [12] the target is unchanged. Put plainly: Binding affinity to human N-terminal His6-tagged LDH-5 expressed in Escherichia coli Rosetta (DE3) assessed as induction of thermal destabilization by measuring melting temperature at 400 uM by nano differential scanning fluorimetry analysis (reference value: 66 degree C).
Data set [13] has the same target. Put plainly: Binding affinity to human N-terminal His6-tagged LDH-5 expressed in Escherichia coli Rosetta (DE3) assessed as induction of thermal destabilization at 400 uM by nano differential scanning fluorimetry analysis.
For data set [14], the target named is T1, L-lactate dehydrogenase B chain. Put plainly: Binding affinity to recombinant full length human His-tagged LDH-1 (1 to 322 residues) expressed in Escherichia coli assessed as induction of thermal destabilization at 400 uM by nano differential scanning fluorimetry analysis.
Target sequence in this assay (P07195 2-334 limits assumed): as the sequence (P07195 2-334 limits assumed) above
Data set [15] deals with T2, L-lactate dehydrogenase A chain. Put plainly: Binding affinity to truncated N-terminal His6-tagged human LDH-5 expressed in Escherichia coli Rosetta (DE3) assessed as induction of protein disruption by interacting with tetramerization site by Red-NHS fluorescence dye based microscale thermophoresis analysis.
The target in data set [16] is T1, L-lactate dehydrogenase B chain. Put plainly: Binding affinity to recombinant full length human His-tagged LDH-1 (1 to 322 residues) expressed in Escherichia coli assessed as induction of thermal destabilization by measuring change in melting temperature at 400 uM by nano differential scanning fluorimetry analysis.
Target sequence in this assay (P07195 2-334 limits assumed): as above

Calls of active or inactive are those of the source. The calls are words filed in the database; no cut-off is given here. Peptide text beside a SMILES is read from it.

In general, Kd refers to the concentration at which binding is half-saturated. Regarding H-ATLKEKLIAPVAEEEATVP-NH2, the outcome in data set [1], in data set [2] and in data set [5] was Active. For the same compound, the Activity entry in [3] and in [7] was “Not Active” in each case. The “inhibition (INH)” value in data set [4] is on record as “Not Active”. In [6], binding was put at a Kd of 1.78 mM.
Usually ΔTm stands for the change in melting temperature against a reference sample. Usually EC50 stands for the concentration that produces a half-maximal response. Regarding `CC[C@H](C)[C@H](NC(=O)[C@H](CC(C)C)NC(=O)[C@H](CCCCN)NC(=O)[C@@H]1CSc2c(F)c(F)c(c(F)c2F)SC[C@H](N)C(=O)N[C@@H]([C@@H](C)O)C(=O)N[C@@H](CC(C)C)C(=O)N[C@@H](CCCCN)C(=O)N1)C(N)=O` (HELM PEPTIDE1{C.T.L.K.C.K.L.I.[am]}|CHEM1{[Fc1c(F)c([*:2])c(F)c(F)c1[*:1]]}$PEPTIDE1,CHEM1,1:R3-1:R1|PEPTIDE1,CHEM1,5:R3-1:R2$$$V2.0), the outcome in [8] and in data set [15] was inactive. The outcome in [9], in [13] and in data set [14] was Active. In addition, the ΔTm in data set [10] was -5 °C; in data set [16], -1.5 °C. In addition, the EC50 in [11] stood at 172 µM. The Tm in data set [12] was 61 °C.

(Values after ChEMBL document CHEMBL4402594, “Interrogating the Lactate Dehydrogenase Tetramerization Site Using (Stapled) Peptides” (J Med Chem, 2020).)
